# Assay: Case study 1, inflammatory bowel disease (ulcerative colitis)
# Type: in vivo, human
# Conditions: same patient, used previously
# Excerpt: A patient with diagnosed ulcerative colitis (one of 2 major forms of IBD) is cited as a case study on the effects of the GOS product, prepared according to Example 1 The patient had suffered from ulcerative colitis for 5 years and was free of medication prior to, and during, the test period. […] The patient had difficulty in digesting foods, was on a standard diet, suffered from nausea, diarrhoea and abdominal pain. The latter was left side large intestine, which correlated with the diagnosis of colitis based inflammation of the descending colon. A total daily GOS dose of 7 g/d (in 2 separate doses) was ingested. Within 4 days of intake, symptoms began to improve. The patient was better able to digest their diet, gut pains began to recede and nausea was reduced. […] The only change to the diet was the addition of GOS. Six weeks later, this effect has been maintained.
smiles,measurement,value
O=C(O)c1cc(/N=N/c2ccc(S(=O)(=O)Nc3ccccn3)cc2)ccc1O [sulphasalazine],effect of earlier treatment on ulcerative colitis,no positive effect

# Source: patent publication US7883874B2, “Galactooligosaccharide composition and the preparation thereof” (Clasado Inc., priority 2003, dated 2011)
